Source: PubChem BioAssay (NCI)
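Tested at 5 concentrations; 48 h exposure; 96-well plates; endpoints linearly interpolated, else capped at highest concentration. GI50 is the concentration that inhibits growth by half. TGI: concentration producing complete growth inhibition.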

Assays:
Assay in all cases: DTP human tumour cell line panel, 48 h
CAKI-1 renal = test system: CAKI-1 renal
HOP-62 NSCLC = test system: HOP-62 NSCLC
HOP-92 NSCLC = test system: HOP-92 NSCLC
NCI-H23 lung = test system: NCI-H23 lung
OVCAR-5 ovarian = test system: OVCAR-5 ovarian
SK-MEL-28 melanoma = test system: SK-MEL-28 melanoma
SK-MEL-5 melanoma = test system: SK-MEL-5 melanoma
SNB-19 CNS = test system: SNB-19 CNS
SW-620 colon = test system: SW-620 colon
SR leukemia = test system: SR leukemia

| SMILES | TGI (CAKI-1 renal) | TGI (HOP-62 NSCLC) | TGI (HOP-92 NSCLC) | TGI (NCI-H23 lung) | TGI (OVCAR-5 ovarian) | TGI (SK-MEL-28 melanoma) | TGI (SK-MEL-5 melanoma) | TGI (SNB-19 CNS) | TGI (SW-620 colon) | GI50 (CAKI-1 renal) | GI50 (HOP-62 NSCLC) | GI50 (HOP-92 NSCLC) | GI50 (NCI-H23 lung) | GI50 (OVCAR-5 ovarian) | GI50 (SK-MEL-28 melanoma) | GI50 (SK-MEL-5 melanoma) | GI50 (SNB-19 CNS) | GI50 (SW-620 colon) | TGI (SR leukemia) |
| --- | --- | --- | --- | --- | --- | --- | --- | --- | --- | --- | --- | --- | --- | --- | --- | --- | --- | --- | --- |
| CN1CCN(c2nc(N)c(Br)c(Cl)n2)CC1 | > 100 µM | > 100 µM | > 100 µM | > 100 µM | > 100 µM | > 100 µM | > 100 µM | > 100 µM | > 100 µM |  |  |  |  |  |  |  |  |  |  |
| CC(=O)CC(=O)Nc1ccccc1C(F)(F)F | > 100 µM | > 100 µM | > 100 µM | > 100 µM | > 100 µM | > 100 µM | > 100 µM | > 100 µM | > 100 µM |  |  |  |  |  |  |  |  |  |  |
| CC(=O)[CH-]C(=O)c1ccccc1.CC(=O)[CH-]C(=O)c1ccccc1.CC(=O)[CH-]C(=O)c1ccccc1.[Ga+3] | 80 µM | 60.9 µM | 51.9 µM | 48.3 µM | 66.8 µM | 30.9 µM | 65.6 µM | > 100 µM | 55.8 µM | 30.8 µM | 29 µM | 29.8 µM | 20.2 µM | 26.5 µM | 16.5 µM | 23.4 µM | 39.1 µM | 23 µM |  |
| C=CCSC(C)=O | > 100 µM | > 100 µM |  | > 100 µM | > 100 µM | > 100 µM | > 100 µM | > 100 µM | > 100 µM |  |  |  |  |  |  |  |  |  | > 100 µM |
| CCN(CC)c1ccc(C2N3CCCCC3[C@@H]3c4[nH]c5ccccc5c4CCN23)cc1 (some centres not stated) | > 100 µM | > 100 µM | > 100 µM | > 100 µM | > 100 µM | 58 µM | 31.1 µM | > 100 µM | > 100 µM |  |  |  |  |  |  |  |  |  |  |
| CC12CCc3ccccc3C1=NNC(=O)C2 (configuration not stated) | > 100 µM | > 100 µM | > 100 µM | > 100 µM | > 100 µM | > 100 µM | > 100 µM | > 100 µM | > 100 µM |  |  |  |  |  |  |  |  |  |  |
| CC1=C2C=CC(=O)C[C@@]2(C)CCC1 | > 100 µM | > 100 µM | > 100 µM | > 100 µM | > 100 µM | > 100 µM | > 100 µM | > 100 µM | > 100 µM |  |  |  |  |  |  |  |  |  |  |
| CC(=O)OCC1OC(n2c(=S)n(-c3ccccc3)c(=O)c3cc(Br)ccc32)C(OC(C)=O)C1OC(C)=O (configuration not stated) | > 100 µM | > 100 µM | > 100 µM | > 100 µM | > 100 µM | > 100 µM | > 100 µM | > 100 µM | > 100 µM |  |  |  |  |  |  |  |  |  |  |
| COC(=O)c1cc2cc(/C=C3/SC(=S)N(N(C(C)=O)C(C)=O)C3=O)oc2n1Cc1ccccc1 | 40.8 µM | 14.1 µM | > 100 µM | 44.6 µM | 38.1 µM | > 100 µM | 62.7 µM | > 100 µM | > 100 µM | 14.2 µM | 2.67 µM | 44 µM | 21.4 µM | 19 µM | 38.4 µM | 25.7 µM | 27.3 µM | 41 µM |  |
| N#Cc1c(N)nc(N2CCOCC2)c(C#N)c1-c1c(Cl)cccc1Cl | 12.2 µM | 17.8 µM | 46 µM |  | 35.3 µM | 56 µM | 21 µM | 25.6 µM | > 100 µM | 2.24 µM | 3.52 µM | 4.68 µM |  | 6.27 µM | 7.38 µM | 7.27 µM | 6.09 µM | 5.16 µM |  |
| O=C(N/C(=C\c1ccc(/C=C(\NC(=O)c2ccccc2)c2nc3c(O)nc(S)nc3[nH]2)cc1)c1nc2c(O)nc(S)nc2[nH]1)c1ccccc1 | > 100 µM | > 100 µM | > 100 µM | > 100 µM | > 100 µM | > 100 µM | > 100 µM | > 100 µM | > 100 µM |  |  |  |  |  |  |  |  |  |  |
| N#Cc1ccc(C2SCc3nc4ccccc4n32)cc1 (configuration not stated) | > 100 µM | > 100 µM |  | > 100 µM |  | > 100 µM | > 100 µM | > 100 µM | > 100 µM |  |  |  |  |  |  |  |  |  |  |
| CC1=C[C@@H]2c3c(c(O)c(O)c4oc5cc(O)cc(O)c5c(=O)c34)[C@@H](c3cc(O)c(O)c4oc5cc(O)cc(O)c5c(=O)c34)[C@@H]2C(C)(C)C1 | 14 µM | 14.5 µM | 6.6 µM | 14.5 µM | 18.2 µM | 18.7 µM | 10.5 µM | 13 µM | 14.2 µM | 3.93 µM | 3 µM | 1.85 µM | 3.33 µM | 7.83 µM | 5.64 µM | 2.56 µM | 2.76 µM | 3.48 µM |  |
| CCN(CC)C(=S)SS(C)(=O)=O | 57.1 µM | 40.2 µM | 54.2 µM | 35.4 µM | 42.2 µM |  | 49.4 µM | 58.4 µM | 35.2 µM |  |  |  |  |  |  |  |  |  |  |
